Data as given in patent US9951065B2 (Gilead Sciences, Inc., priority 2015, dated 2018).

Target: T1, IDO1 (Homo sapiens, UniProt P14902)
T1 construct: HeLa cells were treated with a test compound in the presence of IFNγ, which induces IDO1 expression; host or cells: H1-HeLa cells, IDO1 induced with IFNγ
Experiment: Cell-based (HeLa) assay for measurement of IDO1 inhibition (kynurenine levels in supernatant after IFNγ induction)
Details: HeLa cells, geometric mean of a minimum of four determinations
Procedure, shortened: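 IDO1 activity is read as kynurenine released into the medium, detected with Ehrlich's reagent (p-dimethylaminobenzaldehyde) at 480 nm after TCA treatment. HeLa cells were exposed 48 h to compounds in 0.5% DMSO alongside IFNγ induction. Values normalized to no-IFNγ and IFNγ controls; four-parameter EC50 given as geometric mean of ≥4 determinations.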

[1] = IFNγ-induced IDO1, kynurenine in supernatant after 48 hour incubation
[2] = IFNγ-induced IDO1, kynurenine in supernatant, 48 hour incubation

T1 sequence (P14902 whole entry): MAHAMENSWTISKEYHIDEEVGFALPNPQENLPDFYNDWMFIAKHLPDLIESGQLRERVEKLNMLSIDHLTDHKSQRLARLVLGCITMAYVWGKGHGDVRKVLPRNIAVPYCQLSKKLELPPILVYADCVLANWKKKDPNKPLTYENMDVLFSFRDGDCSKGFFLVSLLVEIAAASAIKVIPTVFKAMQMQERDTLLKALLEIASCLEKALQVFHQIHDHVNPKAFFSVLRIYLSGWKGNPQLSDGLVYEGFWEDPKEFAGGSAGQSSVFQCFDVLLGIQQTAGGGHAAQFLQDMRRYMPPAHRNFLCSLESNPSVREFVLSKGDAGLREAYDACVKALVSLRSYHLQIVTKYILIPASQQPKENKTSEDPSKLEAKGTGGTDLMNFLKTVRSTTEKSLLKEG

Compound | EC50 [1] | EC50 [2]
Nc1nc2c(F)c(F)cc(/C(=N/O)Nc3cccc(Br)c3)c2[nH]1 [Example 15, 2-Amino-N-(3-bromophenyl)-4,5-difluoro-N′-hydroxy-1H-benzo[d]imidazole-7-carboximidamide] | 0.57 µM | –
CN1CCCC(c2nc3c(F)c(F)cc(/C(=N/O)Nc4cccc(Cl)c4)c3[nH]2)C1 (centres unmarked) [Example 44, N-(3-Chlorophenyl)-4,5-difluoro-N′-hydroxy-2-(1-methylpiperidin-3-yl)-1H-benzo[d]imidazole-7-carboximidamide] | 1.65 µM | –
O/N=C(\Nc1ccc(F)c(Cl)c1)c1ccnc2nc(CNCc3ncccn3)[nH]c12 [Example 130, N-(3-Chloro-4-fluorophenyl)-N′-hydroxy-2-(((pyrimidin-2-ylmethyl)amino)methyl)-1H-imidazo[4,5-b]pyridine-7-carboximidamide] | 2.81 µM | –
OCc1nc2c(F)c(F)cc(/C(=N/O)Nc3cccc(Cl)c3)c2[nH]1 [Example 29, N-(3-Chlorophenyl)-4,5-difluoro-N′-hydroxy-2-(hydroxymethyl)-1H-benzo[d]imidazole-7-carboximidamide] | 1.54 µM | –
O/N=C(\Nc1ccc(F)c(Cl)c1)c1ccc(F)c2nc(NCCN3CCOCC3)[nH]c12 [Example 368, N-(3-chloro-4-fluorophenyl)-4-fluoro-N′-hydroxy-2-((2-morpholinoethyl)amino)-1H-benzo[d]imidazole-7-carboximidamide] | – | 4 µM
CN1CCCC1CCNc1nc2c(F)c(F)cc(/C(=N/O)Nc3ccc(F)c(Cl)c3)c2[nH]1 (centres unmarked) [Example 354, N-(3-chloro-4-fluorophenyl)-4,5-difluoro-N′-hydroxy-2-((2-(1-methylpyrrolidin-2-yl)ethyl)amino)-1H-benzo[d]imidazole-7-carboximidamide] | – | 1.21 µM
CN(C)CCCCNc1nc2c(F)c(F)cc(/C(=N/O)Nc3ccc(F)c(Cl)c3)c2[nH]1 [Example 303, N-(3-chloro-4-fluorophenyl)-2-((4-(dimethylamino)butyl)amino)-4,5-difluoro-N′-hydroxy-1H-benzo[d]imidazole-7-carboximidamide] | – | 2.93 µM
CN1CCC(Nc2nc3c(F)c(F)cc(/C(=N/O)Nc4ccc(F)c(Cl)c4)c3[nH]2)CC1 [Example 442, N-(3-chloro-4-fluorophenyl)-4,5-difluoro-N′-hydroxy-2-((1-methylpiperidin-4-yl)amino)-1H-benzo[d]imidazole-7-carboximidamide] | – | 2.88 µM
O/N=C(\Nc1ccc(Cl)c(Cl)c1)c1ccnc2nc[nH]c12 [Example 86, N-(3,4-Dichlorophenyl)-N′-hydroxy-1H-imidazo[4,5-b]pyridine-7-carboximidamide] | 0.639 µM | –
CN(C)C1(CNc2nc3c(F)c(F)cc(/C(=N/O)Nc4ccc(F)c(Cl)c4)c3[nH]2)CCCC1 [Example 438, N-(3-chloro-4-fluorophenyl)-2-(((1-(dimethylamino)cyclopentyl)methyl)amino)-4,5-difluoro-N′-hydroxy-1H-benzo[d]imidazole-7-carboximidamide] | – | 0.838 µM
Cc1c(F)cc(/C(=N/O)Nc2ccc(F)c(Cl)c2)c2[nH]cnc12 [Example 9, N-(3-Chloro-4-fluorophenyl)-6-fluoro-N′-hydroxy-7-methyl-3H-benzimidazole-4-carboximidamide] | 0.634 µM | –
COCCN(C)CCNc1nc2nccc(/C(=N/O)Nc3ccc(F)c(Cl)c3)c2[nH]1 [Example 219, N-(3-chloro-4-fluorophenyl)-N′-hydroxy-2-((2-((2-methoxyethyl)(methyl)amino)ethyl)amino)-1H-imidazo[4,5-b]pyridine-7-carboximidamide] | 3.83 µM | –
Cn1cnc2c(/C(=N/O)Nc3ccc(F)c(Cl)c3)ccnc21 [Example 197, N-(3-Chloro-4-fluorophenyl)-N′-hydroxy-3-methyl-3H-imidazo[4,5-b]pyridine-7-carboximidamide] | 5.46 µM | –
Nc1nc2c(F)c(F)cc(/C(=N/O)Nc3ccc(F)c(C(F)(F)F)c3)c2[nH]1 [Example 17, 2-Amino-4,5-difluoro-N-(4-fluoro-3-(trifluoromethyl)phenyl)-N′-hydroxy-1H-benzo[d]imidazole-7-carboximidamide] | 1.09 µM | –
O/N=C(\Nc1ccc(F)c(Cl)c1)c1ccnc2nc(CN3CCCCC3)[nH]c12 [Example 140, N-(3-Chloro-4-fluorophenyl)-N′-hydroxy-2-(piperidin-1-ylmethyl)-1H-imidazo[4,5-b]pyridine-7-carboximidamide] | 1.61 µM | –
Cc1ccc(N/C(=N\O)c2ccnc3nc[nH]c23)cc1 [Example 94, N′-Hydroxy-N-(p-tolyl)-1H-imidazo[4,5-b]pyridine-7-carboximidamide] | 6.35 µM | –
O/N=C(\Nc1ccc(Cl)c(Br)c1)c1ccnc2nc[nH]c12 [Example 85, N-(3-Bromo-4-chlorophenyl)-N′-hydroxy-1H-imidazo[4,5-b]pyridine-7-carboximidamide] | 0.462 µM | –
O/N=C(\Nc1ccc(F)c(Cl)c1)c1cc(F)c(F)c2nc(NC3CC(O)C3)[nH]c12 (centres unmarked) [Example 296, N-(3-chloro-4-fluorophenyl)-4,5-difluoro-N′-hydroxy-2-((3-hydroxycyclobutyl)amino)-1H-benzo[d]imidazole-7-carboximidamide] | > 10 µM | –
O/N=C(\Nc1ccccc1)c1ccnc2nc[nH]c12 [Example 100, N′-hydroxy-N-phenyl-1H-imidazo[4,5-b]pyridine-7-carboximidamide] | 0.77 µM | –
CC(C)(CO)CNCc1nc2nccc(/C(=N/O)Nc3ccc(F)c(Cl)c3)c2[nH]1 [Example 143, N-(3-Chloro-4-fluorophenyl)-N′-hydroxy-2-(((3-hydroxy-2,2-dimethylpropyl)amino)methyl)-1H-imidazo[4,5-b]pyridine-7-carboximidamide] | 7.35 µM | –
O/N=C(\Nc1ccc(F)c(Cl)c1)c1cc(F)c(F)c2nc(N3CCOCC3)[nH]c12 [Example 32, N-(3-Chloro-4-fluorophenyl)-4,5-difluoro-N′-hydroxy-2-morpholino-1H-benzo-[d]imidazole-7-carboximidamide] | 9.28 µM | –
CCNCc1nc2nccc(/C(=N/O)Nc3ccc(F)c(Cl)c3)c2[nH]1 [Example 114, N-(3-Chloro-4-fluorophenyl)-2-((ethylamino)methyl)-N′-hydroxy-1H-imidazo[4,5-b]pyridine-7-carboximidamide] | 0.927 µM | –
O/N=C(\Nc1ccc(F)c(Cl)c1)c1ccc(OC(F)(F)F)c2nc[nH]c12 [Example 2, N-(3-Chloro-4-fluorophenyl)-N′-hydroxy-4-(trifluoromethoxy)-1H-benzo[d]imidazole-7-carboximidamide] | 2.46 µM | –
N[C@@H]1CCCC[C@@H]1Nc1nc2c(F)c(F)cc(/C(=N/O)Nc3ccc(F)c(Cl)c3)c2[nH]1 [Example 474, 2-(((1S,2R)-2-aminocyclohexyl)amino)-N-(3-chloro-4-fluorophenyl)-4,5-difluoro-N′-hydroxy-1H-benzo[d]imidazole-7-carboximidamide] | – | 7.58 µM
Nc1nc2cc(F)cc(/C(=N/O)Nc3cccc(Cl)c3)c2[nH]1 [Example 371, 2-amino-N-(3-chlorophenyl)-5-fluoro-N′-hydroxy-1H-benzo[d]imidazole-7-carboximidamide] | – | 0.644 µM
O/N=C(\Nc1ccc(F)c(Cl)c1)c1ccnc2nc(CN3CCCC3)[nH]c12 [Example 139, N-(3-Chloro-4-fluorophenyl)-N′-hydroxy-2-(pyrrolidin-1-ylmethyl)-1H-imidazo[4,5-b]pyridine-7-carboximidamide] | 1.4 µM | –
